Assay [1] in a line: TLC precursor-binding assay with lipid II. Set-up: key to Lipid II (TLC binding): “+” indicates binding confirmed; “-” indicates no binding; “~” indicates potential binding with absence of precursor band. The note with it: for Lipid II (TLC binding): peptide 0.5, 1, 2 equiv. (nisin 0.1, 0.5, 1 equiv.) with lipid II in Tris·HCl pH 7.5, 50 mM CaCl2, 1 h, silica TLC. As to the method:
(§1) Lipid II and undecaprenyl phosphate (C55-P) (1 equiv., 30 µL) in Tris•HCl buffer (0.2% Triton X-100, 26 mM MgCl2, and 50 mM CaCl2 at pH 7.5) were incubated with the peptides (0.5, 1, 2 equiv.) or nisin (0.1, 0.5, 1 equiv.) in 30 µL water for 1 h. The reaction was then extracted with ^tBuOH/6 M PyOAc (2/1 v/v, 100 µL) and the organic phase was dried using an Eppendorf vacuum centrifuge 5301 (Fisher Scientific, Loughborough, UK) under reduced pressure. The solid was redissolved in CHCl3/MeOH (1/1 v/v, 30–60 µL) for spotting onto the TLC plates. In addition to the peptide–lipid mixtures, a control of each peptide/nisin with 30 µL buffer, and a control of each lipid with 30 µL HPLC-grade water were also incubated and subjected to the same workup. Silica TLC plates were run in a CHCl3/MeOH/H2O/NH3 (88/48/10/1 v/v) solvent system and stained using iodine vapour, phosphomolybdic acid (PMA), or KMnO4 stain, as well as visualisation at 254 nm and 365 nm.

The subject of assay [2] is B. subtilis 168. It counts as cell-based. As to the method: MICs were measured in triplicate by microbroth dilution. An overnight culture of B. subtilis 168 (DSMZ German Collection of Microorganisms and Cell Cultures GmbH) was inoculated at 5 × 10^5 CFU/mL in cation-adjusted Mueller–Hinton broth (MHB II) with or without 15 mM or 100 mM CaCl2. Serial two-fold peptide dilutions (128 - 1 µg/mL for analogues and 16 - 0.25 µg/mL for daptomycin) were incubated in polypropylene U-bottom 96-well plates (200 µL final volume) at 37 °C for 24 h. MIC was the lowest concentration at which no growth was observed. Optical density measurements at 620 nm were performed using a Thermo Scientific Multiskan FC (Thermo Fisher Scientific Inc., Paisley, UK). MIC was determined from the lowest concentration at which no tubidity was observed, using an untreated positive growth control, and a broth-only sterility control as references.

The nature of assay [3]: TLC precursor-binding assay with C55-P. On the set-up: key to C55-P (TLC binding): “+” indicates binding confirmed; “-” indicates no binding; “~” indicates potential binding with absence of precursor band. The settings on record: for C55-P spot on TLC after incubation with peptide (in words): absence of C55-P spot = potential indicator of binding, KMnO4 staining in Figure S5; for C55-P (TLC binding): peptide 0.5, 1, 2 equiv. with C55-P in Tris·HCl pH 7.5, 50 mM CaCl2, 1 h, silica TLC. As to the method: as §1

Values after ≈ are worked out from the molar mass of the structure shown. “Also recorded” adds a separate entry of the source. Like-named read-outs stand apart in the source and are kept apart here. Numbered stars: 1 amine (or outer) side, 2 acyl side, 3 side chain; on linkers, the order of the positions; unused ones are H or OH. Bridge positions count the residues as written; N and C are the ends. Square brackets hold non-standard residues; d marks the D form. Peptide text beside a SMILES is read from it. * marks the point of attachment. β2hAla(R) = C[C@H](CN[*:1])C(=O)[*:2]; Decanoyl = CCCCCCCCCC(=O)*; Sar = CNCC(=O)O

In the case of `CCCCCCCCCC(=O)N[C@@H](Cc1c[nH]c2ccccc12)C(=O)N[C@H](CC(N)=O)C(=O)N[C@@H](CC(=O)O)C(=O)N[C@@H]1C(=O)NCC(=O)N[C@@H](CCCN)C(=O)N[C@@H](CC(=O)O)C(=O)N[C@H](C)C(=O)N[C@@H](CC(=O)O)C(=O)NCC(=O)N[C@H](CO)C(=O)N[C@@H]([C@H](C)CC(=O)O)C(=O)N[C@@H](CC(=O)c2ccccc2N)C(=O)O[C@@H]1C` [Daptomycin, reference compound], the “Lipid II (TLC binding)” value in assay [1] is “-”. The “MIC − Ca^2+” value in assay [2] (B. subtilis 168, MHB II with 0 mM CaCl2, 5 × 10^5 CFU/mL, 37 °C, 24 h, two-fold dilution series, triplicate) was found to be 16 µg/mL (≈ 9.87 µM). Moreover, the “decrease in activity in the absence of calcium” value in assay [2] (B. subtilis 168, MIC without Ca versus with 15 or 100 mM Ca) is reported as 16- to 32 fold. Also, in assay [3], the “C55-P spot on TLC after incubation with peptide (in words)” value (“C55-P spot on TLC after incubation” below) is “a lack of binding” and the “C55-P (TLC binding)” value was “-”.
In the case of `CCCCCCCCCC(=O)NC[C@@H](C)C(=O)NCC(=O)N[C@H](CCC(=O)O)C(=O)N[C@@H](Cc1ccc(O)cc1)C(=O)N[C@@H]1C(=O)N[C@H]([C@H](C)CC)C(=O)N[C@@H](CC(=O)O)C(=O)N[C@@H](CC(=O)O)C(=O)N2CCC[C@H]2C(=O)NCC(=O)N[C@H](CCC(=O)O)C(=O)N[C@@H](CCC(=O)O)C(=O)N(C)CC(=O)O[C@@H]1C` [Peptide C1a] (Decanoyl-[β2hAla(R)]G[dE]YT[dI]DDPG[dE]E[Sar]; ester 5-C), the “Lipid II (TLC binding)” value in assay [1] was “-”. Also, in assay [2] (168, 24 h), the “MIC + Ca^2+” value was determined as 128 µg/mL and the “MIC − Ca^2+” value was 128 µg/mL (≈ 84.4 µM). In addition, the “C55-P (TLC binding)” value in assay [3] is on record as “-”.
Turning to `CCCCCCCCCC(=O)NC[C@@H](C)C(=O)NCC(=O)N[C@H](CCC(=O)O)C(=O)N[C@@H](Cc1ccc(O)cc1)C(=O)N[C@@H]1C(=O)N[C@H]([C@H](C)CC)C(=O)N[C@@H](CC(=O)O)C(=O)N[C@@H](CC(=O)O)C(=O)N2CCC[C@H]2C(=O)NCC(=O)N[C@H](CCC(=O)O)C(=O)N[C@@H](CCC(=O)O)C(=O)N(C)CC(=O)O[C@@H]1C` [Peptide C1b] (Decanoyl-[β2hAla(R)]G[dE]YT[dI]DDPG[dE]E[Sar]; ester 5-C), the “Lipid II (TLC binding)” value in assay [1] is “-”. The “MIC + Ca^2+” value in assay [2] (168, 24 h) was 128 µg/mL. For the same compound, in assay [3], the “C55-P spot on TLC after incubation” value is on record as “no longer visible” and the “C55-P (TLC binding)” value is reported as “~”.
In the case of `CCCCCCCCCC(=O)NC[C@@H](C)C(=O)NCC(=O)N[C@H](CCC(=O)O)C(=O)N[C@@H](Cc1ccc(O)cc1)C(=O)N[C@@H]1C(=O)N[C@H]([C@H](C)CC)C(=O)N[C@@H](CC(=O)O)C(=O)N[C@@H](CC(=O)O)C(=O)N2CCC[C@H]2C(=O)NCC(=O)N[C@@H](CCC(=O)O)C(=O)N[C@@H](CCC(=O)O)C(=O)N(C)CC(=O)O[C@@H]1C` [Peptide C2a] (Decanoyl-[β2hAla(R)]G[dE]YT[dI]DDPGEE[Sar]; ester 5-C), the “Lipid II (TLC binding)” value in assay [1] is listed as “-”. In assay [2] (168, 24 h), the “MIC + Ca^2+” value is 128 µg/mL and the “MIC − Ca^2+” value is given as 128 µg/mL (≈ 84.4 µM). In addition, in assay [3], the “C55-P spot on TLC after incubation” value is recorded as “no longer visible” and the “C55-P (TLC binding)” value is listed as “~”.
In the case of `CCCCCCCCCC(=O)NC[C@@H](C)C(=O)NCC(=O)N[C@H](CCC(=O)O)C(=O)N[C@@H](Cc1ccc(O)cc1)C(=O)N[C@@H]1C(=O)N[C@H]([C@H](C)CC)C(=O)N[C@@H](CC(=O)O)C(=O)N[C@@H](CC(=O)O)C(=O)N2CCC[C@H]2C(=O)NCC(=O)N[C@@H](CCC(=O)O)C(=O)N[C@@H](CCC(=O)O)C(=O)N(C)CC(=O)O[C@@H]1C` [Peptide C2b] (Decanoyl-[β2hAla(R)]G[dE]YT[dI]DDPGEE[Sar]; ester 5-C), the “Lipid II (TLC binding)” value in assay [1] was “-”. Besides, in assay [3], the “C55-P spot on TLC after incubation” value was “no longer visible”.
Taken in the same sequence, the figures for `CCCCCCCCCC(=O)NC[C@@H](C)C(=O)NCC(=O)N[C@H](CCC(=O)O)C(=O)N[C@@H](Cc1ccc(O)cc1)C(=O)N[C@@H]1C(=O)N[C@H]([C@H](C)CC)C(=O)N[C@@H](CC(=O)O)C(=O)N[C@@H](CC(=O)O)C(=O)N2CCC[C@H]2C(=O)NCC(=O)N[C@@H](CCC(=O)O)C(=O)N[C@@H](CCC(=O)O)C(=O)N(C)CC(=O)O[C@@H]1C` [Peptide C2c] (Decanoyl-[β2hAla(R)]G[dE]YT[dI]DDPGEE[Sar]; ester 5-C) were “-” and “no longer visible”.
Take `CCCCCCCCCC(=O)NC[C@@H](C)C(=O)NCC(=O)N[C@H](CCC(=O)O)C(=O)N[C@@H](Cc1ccc(O)cc1)C(=O)N[C@@H]1C(=O)N[C@H]([C@H](C)CC)C(=O)N[C@@H](CC(=O)O)C(=O)N[C@@H](CC(=O)O)C(=O)N2CCC[C@H]2C(=O)NCC(=O)N[C@H](CC(=O)O)C(=O)N[C@@H](CC(=O)O)C(=O)N(C)CC(=O)O[C@@H]1C` [Peptide C3] (Decanoyl-[β2hAla(R)]G[dE]YT[dI]DDPG[dD]D[Sar]; ester 5-C): in assay [1], the “Lipid II (TLC binding)” value is reported as “-”. In addition, in assay [2] (168, 24 h), the “MIC + Ca^2+” value was found to be 128 µg/mL and the “MIC − Ca^2+” value came to 128 µg/mL (≈ 86 µM). Moreover, in assay [3], the “C55-P spot on TLC after incubation” value was “no spots for C55-P; also recorded: no longer visible” and the “C55-P (TLC binding)” value was “~”.
As for `CCCCCCCCCC(=O)NC[C@@H](C)C(=O)NCC(=O)N[C@H](CCC(=O)O)C(=O)N[C@@H](Cc1ccc(O)cc1)C(=O)N[C@@H]1C(=O)N[C@H]([C@H](C)CC)C(=O)N[C@@H](CC(=O)O)C(=O)N[C@@H](CC(=O)O)C(=O)N2CCC[C@H]2C(=O)NCC(=O)N[C@@H](CC(=O)O)C(=O)N[C@@H](CC(=O)O)C(=O)N(C)CC(=O)O[C@@H]1C` [Peptide C4] (Decanoyl-[β2hAla(R)]G[dE]YT[dI]DDPGDD[Sar]; ester 5-C), the “Lipid II (TLC binding)” value in assay [1] is reported as “-”. Further, in assay [2] (168, 24 h), the “MIC + Ca^2+” value came out at 128 µg/mL and the “MIC − Ca^2+” value worked out at 128 µg/mL (≈ 86 µM). Further, in assay [3], the “C55-P (TLC binding)” value is on record as “-”.
Take `CCCCCCCCCC(=O)NC[C@@H](C)C(=O)NCC(=O)N[C@H](CCC(=O)O)C(=O)N[C@@H](Cc1ccc(O)cc1)C(=O)N[C@@H]1C(=O)N[C@H]([C@H](C)CC)C(=O)N[C@@H](CC(=O)O)C(=O)N[C@@H](CC(=O)O)C(=O)N2CCC[C@H]2C(=O)NCC(=O)N[C@H](CC(=O)O)C(=O)N[C@@H](CCC(=O)O)C(=O)N(C)CC(=O)O[C@@H]1C` [Peptide C5] (Decanoyl-[β2hAla(R)]G[dE]YT[dI]DDPG[dD]E[Sar]; ester 5-C): the “Lipid II (TLC binding)” value in assay [1] is recorded as “-”. Further, in assay [2] (168, 24 h), the “MIC + Ca^2+” value is given as 128 µg/mL and the “MIC − Ca^2+” value was found to be 128 µg/mL (≈ 85.2 µM). Also, in assay [3], the “C55-P (TLC binding)” value is on record as “-”.
Turning to `CCCCCCCCCC(=O)NC[C@@H](C)C(=O)NCC(=O)N[C@H](CCC(=O)O)C(=O)N[C@@H](Cc1ccc(O)cc1)C(=O)N[C@@H]1C(=O)N[C@H]([C@H](C)CC)C(=O)N[C@@H](CC(=O)O)C(=O)N[C@@H](CC(=O)O)C(=O)N2CCC[C@H]2C(=O)NCC(=O)N[C@@H](CC(=O)O)C(=O)N[C@@H](CCC(=O)O)C(=O)N(C)CC(=O)O[C@@H]1C` [Peptide C6] (Decanoyl-[β2hAla(R)]G[dE]YT[dI]DDPGDE[Sar]; ester 5-C), the “Lipid II (TLC binding)” value in assay [1] was “-”. Moreover, in assay [2] (168, 24 h), the “MIC + Ca^2+” value was 128 µg/mL and the “MIC − Ca^2+” value is listed as 128 µg/mL (≈ 85.2 µM). In assay [3], the “C55-P spot on TLC after incubation” value was “no longer visible” and the “C55-P (TLC binding)” value is “~”.
In the case of `CCCCCCCCCC(=O)NC[C@@H](C)C(=O)NCC(=O)N[C@H](CCC(=O)O)C(=O)N[C@@H](Cc1ccc(O)cc1)C(=O)N[C@@H]1C(=O)N[C@H]([C@H](C)CC)C(=O)N[C@@H](CC(=O)O)C(=O)N[C@@H](CC(=O)O)C(=O)N2CCC[C@H]2C(=O)NCC(=O)N[C@H](CCC(=O)O)C(=O)N[C@@H](CC(=O)O)C(=O)N(C)CC(=O)O[C@@H]1C` [Peptide C7b] (Decanoyl-[β2hAla(R)]G[dE]YT[dI]DDPG[dE]D[Sar]; ester 5-C), the “MIC + Ca^2+” value in assay [2] (168, 24 h) is recorded as 128 µg/mL.
In the case of Nisin [reference compound], the “binding to lipid II in TLC assay (in words)” value in assay [1] (lipid II spot on TLC after incubation, PMA staining in Figure S6) was “nisin-lipid II binding; also recorded: Positive binding”. Moreover, in assay [1], the “Lipid II (TLC binding)” value is given as “+”.

Source of the values: paper PMC12650660, “Novel Synthetic Strategies Towards Analogues of Cadaside and Malacidin Antibiotic Peptides” (Biomolecules, 2025).
